Peptide text beside a SMILES is read from it.
Legend:
[1] = system: α-synuclein 68–78 (GAVVTGVTAVA); conditions: ref [14]; cited from earlier work
From the text: To obtain an effective peptidic aggregation inhibitor, the peptide should bind to the region that plays an important role in amyloid fibril formation. The hydrophobic central region of α-synuclein called the "non-amyloid-β component of the amyloid plaque" (NAC) (residues 61–95) is the most important region in the formation of amyloid-like fibrils.

α-synuclein [2] = molecular target: T1, α-synuclein (Homo sapiens, UniProt P37840); experiment: light scattering assay at 330 nm (total aggregation); type: biochemical; conditions: 5-fold molar excess of peptide, 10 mM Tris-HCl pH 7.4, 0.02% NaN3, 37°C, shaking
T1 construct: made in house; host or cells: Escherichia coli BL21(DE3)
Experimental: (§1) To determine the effect of peptides on α-synuclein aggregation, we co-incubated α-synuclein with 5-fold molar excess of the screened peptides. The α-synuclein fibril amounts were evaluated by Thioflavin T (TfT) binding assay. It is known that when TfT binds to amyloid fibrils, the fluorescence intensity around 480 nm increases. […] Next, to determine whether or not these increases in fluorescence intensity depend on the fibril amount, we examined the aggregation amount by a light scattering assay at 330 nm. The value of optical density at 330 nm of the α-synuclein solution with the top peptides was also higher compared with that of the α-synuclein solution without peptide, as shown in Figure 4.
Figure 4 Light scattering assay. […] 100% is the optical density at 330 nm of α-synuclein without peptide. […]
(§2) All the protein samples were concentrated to approximately 4.0 mg/ml by means of Amicon Ultra-15 filters (Millipore) in 10 mM Tris-HCl, pH 7.4, and centrifuged at 150,000 g for 60 min to remove the insoluble aggregates. […] Fibril formation was monitored by thioflavin T (TfT) fluorescence: 10 μl aliquots were sampled from the incubated samples and added to 1.0 ml of 25 μM TfT in 10 mM Tris buffer, pH 7.4. Fluorescence emission was measured at 485 nm at an excitation wavelength of 450 nm on a FP6500 spectrofluorometer (JASCO). […]

α-synuclein [3] = molecular target: T1, α-synuclein; experiment: Thioflavin T (TfT) binding assay of α-synuclein fibril formation; type: biochemical; conditions: α-synuclein 140 μM, peptide 700 μM (5-fold molar excess), 10 mM Tris-HCl pH 7.4, 0.02% NaN3, 37°C, shaking; 25 μM TfT
Experimental: as §1
Figure 3 Time course of α-synuclein fibril formation. […] 100% is the final fluorescence intensity of α-synuclein without peptide. […]
as §2

α-synuclein [4] = molecular target: T1, α-synuclein; experiment: surface plasmon resonance binding (CM5 sensor chip); conditions: Scatchard plot; for affinity to α-synuclein (in words): peptide immobilized on CM5 chip by amine coupling, α-synuclein injected
Experimental: The affinities of the screened peptides were determined by surface plasmon resonance measurement. The screened peptides were immobilized on a CM5 sensor chip by amine coupling. […] Thus, we added an alanine residue to the N-terminals of these peptides to immobilize them on the CM5 sensor chip and evaluated them. The dissociation constants were determined using a Scatchard plot. […] In the case of PTYF, its KD was more than 10 times that of QSTQ. Since docking simulation still has problems inaccuracy, we have to evaluate several peptides to find good ligands. In this study, we can obtain the high affinity peptide by assaying the top 4 peptides.
Human wild-type α-synuclein expressed in Escherichia coli BL21(DE3) cells transformed the pET28a/human α-synuclein WT plasmid. Following induction with 1 mM isopropyl-1-thio-β-D-galactopyranoside, the α-synuclein was purified by anion exchange chromatography. The bacterial cells were harvested by centrifugation at 5,000 g for 10 min and lysed in 500 mM NaCl, 20 mM Tris-HCl, pH 8.0, and 1 mM EDTA. The lysate was then boiled for 20 min, and centrifuged for 10 min at 20,000 g. The supernatant was dialyzed against 20 mM Tris-HCl, pH 8.0, loaded onto a ResourseQ 6-ml column (Amersham Biosciences) equilibrated in the same buffer, and eluted with a 0 ~1 M NaCl gradient. The α-synuclein-containing fraction was dialyzed against 10 mM Tris-HCl, pH 7.4.
All peptides were immobilized onto the CM5 sensor chip by amine coupling. The CM5 sensor chip (Biacore) was activated by an equimolar mix of NHS (N-hydroxysuccinimide) and EDC (N-ethyl-N'-(dimethylaminopropyl) carbodiimide), coupled with 100 μg/mL of the synthesized peptide in pH-6.0 sodium acetate buffer, and then blocked with ethanolamine. For reference, only activation and protection was carried out, in the same way as mentioned above. The final coupling level of each peptide was approximately 100 RU. Each of the α-synuclein solutions was injected, and at different concentrations a signal increase was observed. The sensor surface was regenerated using 0.5% SDS. The dissociation constants were determined using a Scatchard plot and an equilibrium point.

α-synuclein [5] = conditions: cited from earlier work

GAVVTGVTAVA [α-synuclein 68–78, partial peptide in NAC, the target 11-mer peptide]
amyloid-like fibril formation by itself (in words) [1]: form amyloid-like fibrils by themselves

C[C@@H](O)[C@H](NC(=O)[C@H](CO)NC(=O)[C@@H](N)CCC(N)=O)C(=O)N[C@@H](CCC(N)=O)C(=O)O [QSTQ] (H-QSTQ-OH; N-terminus and C-terminus assumed)
optical density at 330 nm relative to solution without peptide (α-synuclein [2]): more than 1.5 times | fluorescence intensity of TfT relative to solution without peptide (α-synuclein [3]): more than 1.5 times

GSQQ [tetramer peptide from in silico panning, rank 2]
affinity to α-synuclein (in words) (α-synuclein [4]): lower affinity than QSTQ and AQTQ

N[C@@H](Cc1ccc(O)c(O)c1)C(=O)O [L-DOPA]
cytotoxicity (in words) (α-synuclein [5]): enhance cytotoxicity

PTYF
KD relative to KD of QSTQ (α-synuclein [4]; peptide immobilized on CM5 chip, alanine residue added to N-terminal): more than 10 times

AQTQ [tetramer peptide from in silico panning, rank 4]
optical density at 330 nm relative to solution without peptide (α-synuclein [2]): more than 1.5 times | affinity to α-synuclein (in words) (α-synuclein [4]): bound to α-synuclein with similar affinity of QSTQ

SQTQ [tetramer peptide from in silico panning, rank 3]
affinity to α-synuclein (in words) (α-synuclein [4]): lower affinity than QSTQ and AQTQ
